Laboratory results as given in patent publication US11141428B2, “Octasaccharides and uses thereof” (Academia Sinica, priority 2017, dated 2021).
“Also recorded” adds a separate entry of the source.

How the values were obtained:
adult DRG neurons = test: Rescue of dystrophic endballs and axonal growth of adult DRG neurons across an aggrecan gradient (FIG. 1b, c); format: cell-based, mice; conditions: for promotion of axonal growth / penetration across an aggrecan gradient / rescue / prevention of dystrophic endball formation: 20 μg/mL, adult DRG neurons on aggrecan gradient, FIG. 1 panel b; for axons invading the aggrecan rim that could pass the rim of aggrecan gradient: FIG. 1 panel c, left, comparable to chondroitinase ABC (C-ABC) digestion of chondroitin sulfate
Procedure: Preparation of an aggrecan gradient spot on coverslip. Glass coverslips were coated with 100 μg/mL PLL overnight at room temperature, rinsed with sterile water and dried completely. Onto the coverslip, 2 μL of an aggrecan (0.4 mg/mL) and laminin (10 μg/mL) mixture in Ca^2+- and Mg^2+-free Hank's balanced salt solution (HBSS) (Invitrogen) was spotted and dried. Then, the coverslip was bathed in laminin ([…]) solution in HBSS until just before (i.e., at least 3 h before) cell plating at 37° C. The laminin solution was subsequently removed, and the cells were plated without allowing the surface of the coverslip to dry.
DRG neuron primary culture. DRGs were dissected out of C57BL/6J (SLC) adult (12-16 weeks) female mice. The roots of isolated DRGs were trimmed in cold HBSS, collected in a centrifuge tube and spun down for 1 min at low speed (500 rpm). Then, the HBSS was removed. The tissues were incubated in collagenase-II (4 mg/mL)/dispase-II (4.67 mg/mL) in HBSS for 15 min at 37° C. After spinning down at low speed, the tissues were rinsed once with pre-warmed culture media consisting of Neurobasal-A (Gibco) with Gluta-MAX (Gibco), Anti-Anti (Gibco) and B-27 (Invitrogen), then spun down and triturated in fresh media. To refine neurons, the cell suspension was carefully overlaid onto 15% bovine serum albumin (BSA) in HBSS and spun down for 5 min at high speed (1000 rpm), and the supernatant was gently removed. The DRG cells were rinsed once and suspended in the media. The DRG cells were plated onto coverslips in the media.
Immunostaining. DRG neurons were fixed in ice-cold methanol for 15 min at −30° C. The fixed samples were then rinsed three times with phosphate buffered saline (PBS) and incubated in a blocking solution containing 5% (v/v) goat serum (Vector) and 0.2% (v/v) Triton-X 100 (Sigma) for 90 min at room temperature. For neuron-specific class III β-tubulin (Tuj1) staining, samples were bathed in 1:1000 mouse monoclonal Tuj1 (Covance, 801201) diluted in PBS containing 2.5% (v/v) normal goat serum overnight at 4° C. After three washes with PBS, neurons were incubated with 1:250 Alexa488-conjugated goat anti-mouse IgG (Molecular Probes, A11001) dissolved in PBS containing 2.5% (v/v) goat serum for 2 h at room temperature.

RPTPσ = test: Activation / phosphorylation of RPTPσ by sulfated octasaccharides (Western blot, densitometric analysis, FIG. 1a); format: cell-based; conditions: 10 μg/mL, 15 min; FIG. 1 panel a
Procedure: SDS-PAGE and Western blotting. Cells were lysed with Tris-buffered saline (TBS), 1% Triton-X, Complete Mini Protease Inhibitor Cocktail (Roche) and Phostop Phosphatase Inhibitor Cocktail (Roche). Lysates were incubated on ice for 10 min and centrifuged at 20000 g for 10 min at 4° C. Supernatants were mixed with 4×SDS sample buffer and boiled for 5 min.
All samples were run on 5-20% gradient gel (Wako) and transferred to nitrocellulose membranes (GE Healthcare). After blocking with 5% non-fat dry milk or BSA, the membranes were blotted with primary antibodies. Primary antibodies used in this work included anti-EGFR pY1174 (Invitrogen, 44794G), anti-HA (Roche, clone 3F10), 4G10 Platinum (Millipore, 05-1050) and anti-β-actin (Sigma Aldrich, clone AC-15). All primary antibodies were used at 1:1000 dilution. All secondary antibodies conjugated with horseradish peroxidase were from Jackson ImmunoResearch and used at 1:3000 dilution. Membranes were developed with Novex ECL (Invitrogen) or ECL Plus Substrate (Pierce).

Molecule | promotion of axonal growth / penetration across an aggrecan gradient (adult DRG neurons) | rescue / prevention of dystrophic endball formation (adult DRG neurons) | axons invading the aggrecan rim that could pass the rim of aggrecan gradient (adult DRG neurons) | activation of RPTPσ (inducing phosphorylation of RPTPσ) (RPTPσ) | promotion of axonal growth / penetration across an aggrecan gradient (adult DRG neurons; listed as HS 14) | rescue / prevention of dystrophic endball formation (adult DRG neurons; listed as HS 14)
5-Aminopentyl (2-deoxy-2-sulfamido-6-O-sulfonato-α-D-glucopyranosyl)-(1→4)-α-L-idopyranosiduronyl-(1→4)-(2-deoxy-2-sulfamido-6-O-sulfonato-α-D-glucopyranosyl)-(1→4)-β-D-glucopyranosiduronyl-(1→4)-(2-deoxy-2-sulfamido-6-O-sulfonato-α-D-glucopyranosyl)-(1→4)-α-L-idopyranosiduronyl-(1→4)-(2-deoxy-2-sulfamido-6-O-sulfonato-α-D-glucopyranosyl)-(1→4)-β-D-glucopyranosiduronate [HS16] | facilitated their penetration across the gradient | prevent formation of dystrophic endballs | Nearly half |  |  | 
5-Aminopentyl (2-deoxy-2-sulfamido-α-D-glucopyranosyl)-(1→4)-α-L-idopyranosiduronyl-(1→4)-(2-deoxy-2-sulfamido-α-D-glucopyranosyl)-(1→4)-β-D-glucopyranosiduronyl-(1→4)-(2-deoxy-2-sulfamido-α-D-glucopyranosyl)-(1→4)-α-L-idopyranosiduronyl-(1→4)-(2-de oxy-2-sulfamido-α-D-glucopyranosyl)-(1→4)-β-D-glucopyranosiduronate [HS10] |  |  |  | capable of inducing phosphorylation of RPTPσ |  | 
NCCCCCO[C@@H]1O[C@H](C(=O)O)[C@@H](O[C@H]2O[C@H](CO)[C@@H](O[C@@H]3O[C@@H](C(=O)O)[C@@H](O[C@H]4O[C@H](CO)[C@@H](O[C@@H]5O[C@H](C(=O)O)[C@@H](O[C@H]6O[C@H](CO)[C@@H](O[C@@H]7O[C@@H](C(=O)O)[C@@H](O[C@H]8O[C@H](CO)[C@@H](O)[C@H](O)[C@H]8NS(=O)(=O)O)[C@H](O)[C@H]7OS(=O)(=O)O)[C@H](O)[C@H]6NS(=O)(=O)O)[C@H](O)[C@H]5OS(=O)(=O)O)[C@H](O)[C@H]4NS(=O)(=O)O)[C@H](O)[C@H]3OS(=O)(=O)O)[C@H](O)[C@H]2NS(=O)(=O)O)[C@H](O)[C@H]1OS(=O)(=O)O [HS14] | promoted axonal growth | rescued dystrophic endball formation | Nearly half | capable of inducing phosphorylation of RPTPσ; also recorded: activated RPTPσ | facilitated their penetration across the gradient | prevent formation of dystrophic endballs
